Results published in patent US6686371B2, “Non-steroidal, tetracylic compounds for estrogen-related treatments” (Akzo Nobel N.V., priority 2000, dated 2004).

Legend:
[1] = molecular target: T1, human estrogen receptor α (hERα) (Homo sapiens, UniProt P03372); assay: competitive binding to cytoplasmic human estrogen receptor α from recombinant CHO cells; details: % relative to 17β-estradiol; cytosol of recombinant CHO cells; Table 2
T1 construct: expressed in transfected cells; host or cells: cytosol of recombinant Chinese hamster ovary (CHO) cells stably transfected with hERα
T1 sequence (P03372 1-595): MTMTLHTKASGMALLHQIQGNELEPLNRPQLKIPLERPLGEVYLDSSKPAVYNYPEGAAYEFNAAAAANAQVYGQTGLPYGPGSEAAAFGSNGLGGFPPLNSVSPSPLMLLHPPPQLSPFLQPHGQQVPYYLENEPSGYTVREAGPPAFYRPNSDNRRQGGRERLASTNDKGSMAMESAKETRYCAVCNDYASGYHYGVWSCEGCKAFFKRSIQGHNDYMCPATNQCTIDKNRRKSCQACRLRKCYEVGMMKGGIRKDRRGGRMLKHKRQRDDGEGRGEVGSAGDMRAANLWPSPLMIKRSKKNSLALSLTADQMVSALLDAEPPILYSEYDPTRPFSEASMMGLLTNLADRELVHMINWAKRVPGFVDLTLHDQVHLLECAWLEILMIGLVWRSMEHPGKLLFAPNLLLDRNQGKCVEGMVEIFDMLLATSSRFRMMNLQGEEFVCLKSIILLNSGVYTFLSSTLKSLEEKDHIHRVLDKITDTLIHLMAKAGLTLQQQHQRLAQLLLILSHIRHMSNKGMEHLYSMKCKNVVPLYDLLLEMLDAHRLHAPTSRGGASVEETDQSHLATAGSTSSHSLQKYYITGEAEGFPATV
Experimental: (§1) Compounds are tested for their estrogen receptor activity in a binding assay and in a transactivation assay.
(§2) Determination of competitive binding to cytoplasmic human estrogen receptor α or β from recombinant CHO cells is used to estimate the relative affinity (potency ratio) of a test compound for estrogen receptors present in the cytosol of recombinant Chinese hamster ovary (CHO) cells, stably transfected with the human estrogen receptor α (hERα) or β receptor (hERβ), as compared with estradiol (E2).

[2] = molecular target: T2, human estrogen receptor β receptor (hERβ) (Homo sapiens, UniProt Q92731); assay: transactivation assay, estrogenic activity, recombinant CHO cells co-transfected with hERβ, rat oxytocin promoter and luciferase reporter; type: cell-based; details: for ERβ Transactivation (Potency Transactivation (ERβ)): potency % relative to 17β-estradiol, CHO cells, hERβ, luciferase reporter; for β/α ratio Transactivation: ratio of transactivation potency hERβ over hERα
T2 construct: expressed in transfected cells; host or cells: Chinese hamster ovary (CHO) cells, stably co-transfected with hERβ, rat oxytocin promoter and luciferase reporter
T2 sequence (Q92731 whole entry): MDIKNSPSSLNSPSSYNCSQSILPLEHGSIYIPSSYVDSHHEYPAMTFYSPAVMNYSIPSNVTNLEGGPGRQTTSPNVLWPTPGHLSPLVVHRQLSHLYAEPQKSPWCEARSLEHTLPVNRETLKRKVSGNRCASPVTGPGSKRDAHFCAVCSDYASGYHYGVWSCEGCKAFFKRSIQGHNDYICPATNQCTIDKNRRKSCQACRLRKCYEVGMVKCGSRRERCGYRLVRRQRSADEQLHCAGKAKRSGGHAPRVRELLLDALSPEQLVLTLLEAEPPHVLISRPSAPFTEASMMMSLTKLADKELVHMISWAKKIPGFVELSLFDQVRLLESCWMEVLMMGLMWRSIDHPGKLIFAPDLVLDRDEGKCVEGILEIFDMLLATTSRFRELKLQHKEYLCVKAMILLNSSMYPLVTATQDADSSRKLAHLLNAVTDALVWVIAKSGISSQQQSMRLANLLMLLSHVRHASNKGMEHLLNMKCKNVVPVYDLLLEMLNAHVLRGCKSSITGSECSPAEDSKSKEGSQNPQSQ
Experimental: as §1
The estrogenic and antiestrogenic activity of compounds is determined in an in vitro bioassay with recombinant Chinese hamster ovary (CHO) cells stably co-transfected with the human estrogen receptor α (hERα) or β receptor (hERβ), the rat oxytocin promoter (RO) and the luciferase reporter gene (LUC). The estrogenic activity (potency ratio) of a test compound to stimulate the transactivation of the enzyme luciferase mediated via the estrogen receptors hERα or hERβ is compared with the standard estrogen estradiol. The antiestrogenic activity (potency ratio) of a test compound to inhibit the transactivation of the enzyme luciferase mediated via the estrogen receptors hERα or hERβ by the estrogen estradiol is compared with the standard ICI 164.384 (=(7α,17β)-N-butyl-3,17-dihydroxy-N-methylestra-1,3,5(10)-triene-7-undecanamide).

[3] = molecular target: T2, human estrogen receptor β receptor (hERβ); assay: competitive binding to cytoplasmic human estrogen receptor β from recombinant CHO cells; details: % relative to 17β-estradiol, cytosol of recombinant CHO cells; for ERβ Binding (Potency Binding (ERβ)): Table 1; for Binding ERβ: Table 2
Experimental: as §1, §2

| Compound | Binding ERα [1] | ERβ Transactivation (Potency Transactivation (ERβ)) [2] | β/α ratio Transactivation [2] | ERβ Binding (Potency Binding (ERβ)) [3] | Binding ERβ [3] | melting point |
| --- | --- | --- | --- | --- | --- | --- |
| 10-chloro-1,1-dimethyl-2,8-dihydroxy-11H-indeno[1,2-b]quinoline [Compound 7d] | +++ (between 3.5-8%) |  |  |  |  |  |
| COc1ccc2c(c1)Cc1c-2nc2ccc(OC)cc2c1Cl [Compound 2a, 10-chloro-2,8-dimethoxy-11H-indeno[1,2-b]quinoline] |  | ++ (between 4-10%) | + (between 3.5-10) | ++ (between 2-10%) |  |  |
| COc1ccc2c(c1)Cc1c-2nc2ccc(OC)cc2c1Br [Compound 2b, 10-bromo-2,8-dimethoxy-11H-indeno[1,2-b]quinoline] |  | + (between 0.1-4%) | ++ (between 10-30) | ++ (between 2-10%) |  |  |
| CCCC(=O)Oc1ccc2c(c1)Cc1c-2nc2ccc(OC(=O)CCC)cc2c1Cl [Compound 2c, Dibutyryl Ester of 10-chloro-2,8-dihydroxy-1H-indeno[1,2-b]quinoline] |  | ++ (between 4-10%) | ++ (between 10-30) |  |  |  |
| CCCC(=O)Oc1ccc2c(c1)Cc1c-2nc2ccc(OC(=O)CCC)cc2c1Br [Compound 2d, Dibutyryl Ester of 10-bromo-2,8-dihydroxy-11H-indeno[1,2-b]quinoline] |  | + (between 0.1-4%) | ++ (between 10-30) |  |  |  |
| Oc1ccc2c(c1)Cc1c-2nc2ccc(O)cc2c1-c1ccccc1 [Compound 5, 10-phenyl-2,8-dihydroxy-11H-indeno[1,2-b]quinoline] |  | − (<0.1%) |  | ++ (between 2-10%) |  |  |
| Oc1ccc2c(c1)Cc1c-2nc2ccc(O)cc2c1Cl [Compound 7a, 10-chloro-2,8-dihydroxy-11H-indenol[1,2-b]quinoline] | − (<0.3%) |  |  |  | +++ (between 3.5-8%) |  |
| Oc1ccc2c(c1)Cc1c-2nc2ccc(O)cc2c1Br [Compound 7b, 10-bromo-2,8-dihydroxy-11H-indeno[1,2-b]quinoline] | − (<0.3%) |  |  |  | ++ (between 1.5-3.5%) |  |
| Cc1c(O)ccc2c1Cc1c-2nc2ccc(O)cc2c1Cl [Compound 7c, 10-chloro-1-methyl-2,8-dihydroxy-11H-indeno[1,2-b]quinoline] | + (between 0.1-1.5%) |  |  |  | ++ (between 1.5-3.5%) |  |
| Oc1ccc2nc3c(c(Cl)c2c1)-c1cccc(O)c1CC3 [Compound 8, 12-chloro-4,10-dihydroxy-5,6-dihydro-benz[a]acridine] | ++ (between 1.5-3.5%) |  |  |  | ++ (between 1.5-3.5%) |  |
| Oc1ccc2c(c1)CCc1c-2nc2ccc(O)cc2c1Cl [Compound 10, 7-chloro-3,9-dihydroxy-5,6-dihydro-benz[c]acridine] | ++++ (>8%) |  |  |  | ++++ (>8%) |  |
| Oc1ccc2c(c1)CCc1c-2cc2ccc(O)cc2c1C1CCCC1 [Compound 16, 3,9-dihydroxy-7-cyclopentyl-5,6-dihydro-benz[a]anthracene] |  |  |  |  |  | 233 to 235 °C |
| Oc1ccc(-c2c3c(cc4ccc(O)cc24)-c2ccc(O)cc2CC3)cc1 [Compound 16a, 3,9-dihydroxy-7-(4-hydroxyphenyl)-5,6-dihydro-benz[a]anthracene] |  |  |  |  |  | 272 °C |
| CCCc1c2c(c(Cl)c3ccc(O)cc13)-c1ccc(O)cc1C2 [Compound 22, 2,8-dihydroxy-5-chloro-10-propyl-11H-benzo[b]fluorene] |  |  |  |  |  | 223 to 224 °C |
| Oc1ccc2c(c1)Cc1cc3ccc(O)cc3cc1-2 [Compound 25, 2,7-dihydroxy-11H-benzo[b]fluorene] |  | + (between 0.1-4%) | − (<3.5) | ++ (between 2-10%) |  |  |
| CCc1c2c(c(Cl)c3ccc(O)cc13)-c1ccc(O)cc1C2 [Compound 40, 2,8-dihydroxy-5-chloro-10-ethyl-11H-benzo[b]fluorene] |  |  |  |  |  | 250 to 251 °C |
| CCc1c2c(c(CC)c3ccc(O)cc13)-c1ccc(O)cc1C2 [Compound 47, 2,8-dihydroxy-5,10-diethyl-11H-benzo[b]fluorene] |  |  |  |  |  | 255 °C (dec.) |
| Oc1ccc2c(c1)Cc1c-2cc2ccc(O)cc2c1C=C(F)F [Compound 50, 2,8-dihydroxy-10-(2,2-difluoro-ethenyl)-11H-benzo[b]fluorene] |  |  |  |  |  | 211 to 212 °C |
| CC1c2cc(O)ccc2-c2c1cc1cc(O)ccc1c2Cl (stereo not drawn) [Compound 54, 2,8-dihydroxy-5-chloro-11-methyl-11H-benzo[b]fluorene] |  |  |  |  |  | 215 to 220 °C |
| CCCc1c2c(c(CCC)c3ccc(O)cc13)-c1ccc(O)cc1C2 [Compound 57, 2,8-dihydroxy-5,10-dipropyl-11H-benzo[b]fluorene] |  |  |  |  |  | 250 °C |
| Oc1ccc2c(c1)Cc1cc3cc(O)ccc3c(Cl)c1-2 [Compound 60, 2,8-dihydroxy-5-chloro-11H-benzo[b]fluorene] | ++ (between 1.5-3.5%) | +++ (>10%) | +++ (>30) | +++ (>10%) | ++++ (>8%) |  |
| Oc1ccc2c(c1)Cc1c-2cc2ccc(O)cc2c1Cl [Compound 67a, 2,8-dihydroxy-10-chloro-11H-benzo[b]fluorene] |  | +++ (>10%) | +++ (>30) | +++ (>10%) |  |  |
| Oc1ccc2c(c1)Cc1c-2cc2ccc(O)cc2c1Br [Compound 67b, 2,8-dihydroxy-10-bromo-11H-benzo[b]fluorene] |  | +++ (>10%) | +++ (>30) | +++ (>10%) |  |  |
| Oc1ccc2c(c1)Cc1c-2cc2ccc(O)cc2c1I [Compound 67c, 2,8-dihydroxy-10-iodo-11H-benzo[b]fluorene] |  | +++ (>10%) | +++ (>30) | +++ (>10%) |  |  |
| Cc1c2c(cc3ccc(O)cc13)-c1ccc(O)cc1C2 [Compound 67d, 2,8-dihydroxy-10-methyl-11H-benzo[b]fluorene] |  | + (between 0.1-4%) | ++ (between 10-30) | ++ (between 2-10%) |  | 265 °C |
| Oc1ccc2c(c1)Cc1c-2cc2ccc(O)cc2c1C(F)(F)F [Compound 67e, 2,8-dihydroxy-10-trifluoromethyl-11H-benzo[b]fluorene] |  | ++ (between 4-10%) | ++ (between 10-30) | +++ (>10%) |  |  |
| CC(C)(C)C(=O)Oc1ccc2c(c1)Cc1c-2cc2ccc(OC(=O)C(C)(C)C)cc2c1Cl [Compound 68a, di-pivaloyl Ester of 2,8-dihydroxy-10-chloro-11H-benzo[b]fluorene] |  | ++ (between 4-10%) | +++ (>30) |  |  |  |
| Oc1ccc2c(c1)Cc1cc3cc(O)ccc3cc1-2 [Compound 69, 2,8-dihydroxy-11H-benzo[b]fluorene] |  | + (between 0.1-4%) | + (between 3.5-10) | ++ (between 2-10%) |  |  |
